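Briefly, cells in 96-well plates were exposed to five compound concentrations for 48 h, and endpoints were estimated by linear interpolation. GI50 = concentration required for 50% inhibition of growth. TGI marks complete inhibition of growth.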
What was measured:
Test in all cases: NCI tumour cell line growth inhibition, 48 h
UACC-257 melanoma = test system: UACC-257 melanoma
TK-10 renal = test system: TK-10 renal
RXF 393 renal = test system: RXF 393 renal
NCI-H460 lung = test system: NCI-H460 lung
SK-OV-3 ovarian = test system: SK-OV-3 ovarian
OVCAR-8 ovarian = test system: OVCAR-8 ovarian
HT29 colon = test system: HT29 colon
OVCAR-4 ovarian = test system: OVCAR-4 ovarian
MOLT-4 leukemia = test system: MOLT-4 leukemia
T-47D breast = test system: T-47D breast

| SMILES | TGI (UACC-257 melanoma) [µM] | TGI (TK-10 renal) [µM] | TGI (RXF 393 renal) [µM] | TGI (NCI-H460 lung) [µM] | TGI (SK-OV-3 ovarian) [µM] | TGI (OVCAR-8 ovarian) [µM] | TGI (HT29 colon) [µM] | TGI (OVCAR-4 ovarian) [µM] | TGI (MOLT-4 leukemia) [µM] | GI50 (UACC-257 melanoma) [µM] | GI50 (TK-10 renal) [µM] | GI50 (NCI-H460 lung) [µM] | GI50 (SK-OV-3 ovarian) [µM] | GI50 (OVCAR-8 ovarian) [µM] | GI50 (HT29 colon) [µM] | GI50 (T-47D breast) [µM] | TGI (T-47D breast) [µM] | GI50 (OVCAR-4 ovarian) [µM] | GI50 (MOLT-4 leukemia) [µM] | GI50 (RXF 393 renal) [µM] |
| --- | --- | --- | --- | --- | --- | --- | --- | --- | --- | --- | --- | --- | --- | --- | --- | --- | --- | --- | --- | --- |
| Nc1c(Cl)ncnc1NCCCNc1ncnc(Cl)c1N | > 100 | > 100 | > 100 | > 100 | > 100 | > 100 | > 100 | > 100 | > 100 | – | – | – | – | – | – | – | – | – | – | – |
| CC1=C(C(=O)Nc2cc(F)c(F)cc2F)C(c2ccc([N+](=O)[O-])cc2)C(C(=O)Nc2cc(F)c(F)cc2F)=C(C)N1 | > 100 | 95.1 | 63.2 | > 100 | > 100 | > 100 | > 100 | > 100 | > 100 | – | – | – | – | – | – | – | – | – | – | – |
| CC[C@H](C)[C@H](NC(=O)CN(C)C)C(=O)N(C)[C@H](C[C@@H](OC(C)=O)c1nc(C(=O)NC23CC(C(=O)OC)(C2)C3)cs1)C(C)C | > 25 | > 25 | – | > 25 | > 25 | > 25 | > 25 | > 25 | > 25 | > 25 | > 25 | 0.408 | 1.64 | 0.46 | 0.102 | > 25 | > 25 | 4.64 | 0.119 | – |
| CC(=O)C1=C(O)C2C3c4c[nH]c5cccc(c45)CC3C(C)(C)N2C1=O (stereo unspecified) | > 100 | > 100 | – | 31.8 | > 100 | – | > 100 | > 100 | > 100 | – | – | – | – | – | – | – | – | – | – | – |
| COc1ccc(/C=C/C(=O)c2sc(-n3nc(-c4ccccc4)cc3-c3ccccc3)nc2C)cc1 | > 100 | > 100 | > 100 | > 100 | > 100 | > 100 | > 100 | > 100 | > 100 | – | > 100 | > 100 | > 100 | > 100 | – | – | – | – | – | > 100 |
| NC(=O)NC1C(C(N)=O)N(Cc2ccccc2)C(=O)N1Cc1ccccc1 (stereo unspecified) | > 100 | > 100 | – | > 100 | > 100 | > 100 | > 100 | > 100 | > 100 | – | – | – | – | – | – | – | – | – | – | – |
| COc1cc(CCc2ccc(N)cc2)cc(OC)c1OC | > 100 | > 100 | > 91.1 | > 100 | > 100 | > 100 | > 100 | > 100 | > 100 | – | – | – | – | – | – | – | – | – | – | – |
| Nc1ncnc2c1ncn2C1CC(OCc2ccccc2[N+](=O)[O-])C(CO)O1 (stereo unspecified) | > 50 | > 50 | 21.4 | > 50 | > 50 | > 50 | > 50 | > 50 | > 50 | – | – | – | – | – | – | – | – | – | – | – |
| CN(c1ccccc1)c1c(Cl)c(=O)oc2c1ccc1occc12 | > 100 | > 100 | > 100 | > 100 | – | > 100 | > 100 | > 100 | > 100 | – | – | – | – | – | – | – | – | – | – | – |
| CN1c2ccccc2N(C(=O)c2ccccc2)C(CC(=O)O)c2cccn21 (stereo unspecified) | > 100 | > 100 | > 100 | > 100 | > 100 | > 100 | > 100 | > 100 | > 100 | – | – | – | – | – | – | – | – | – | – | – |
| CSC(=Nc1ccccc1)/N=C(\SCc1ccccc1)N(C)C | 3.23 | 2.63 | 2.3 | 0.691 | 6.69 | 3.22 | 1.05 | 2.43 | – | – | – | – | – | – | – | – | 1.97 | – | – | – |
| CC(SC(=O)Nc1ccc(N=Nc2ccccc2)cc1)C(=O)O (stereo unspecified) | > 100 | > 100 | > 100 | > 100 | – | > 100 | > 100 | > 100 | > 100 | – | – | – | – | – | – | – | – | – | – | – |
| O=C1Cc2cc(C(=O)NC3C[C@H]4CC[C@@H](C3)N4S(=O)(=O)CC3CCN(CCCC(F)(F)F)CC3)c(Cl)cc2N1 (stereo partly specified) | > 100 | > 100 | – | > 100 | > 100 | > 100 | > 100 | > 100 | > 100 | > 100 | > 100 | > 100 | > 100 | > 100 | > 100 | > 100 | > 100 | > 100 | > 100 | – |
| O=C(NNc1ccccc1)/C(=C/c1ccc2c(c1)OCO2)NC(=O)c1ccccc1 | > 100 | > 100 | > 100 | > 100 | > 100 | > 100 | > 100 | > 100 | > 100 | – | – | – | – | – | – | – | – | – | – | – |
| CCN1CCN(C(=O)[C@]23CCC(C)(C)C[C@@H]2C2=CC[C@@H]4[C@@]5(C)C/C(=C/c6ccncc6)C(=O)C(C)(C)[C@@H]5CC[C@@]4(C)[C@]2(C)CC3)CC1 | 3.28 | 3.47 | 2.81 | 2.7 | 4.41 | – | 3.14 | 3.2 | – | 1.51 | 1.95 | 1.28 | 2.1 | – | 1.38 | – | – | 1.54 | – | 1.45 |
| CC(=O)OC1COC(n2c(=S)n(-c3ccccc3)c(=O)c3ccccc32)C(OC(C)=O)C1OC(C)=O (stereo unspecified) | > 100 | – | > 100 | > 100 | > 100 | > 100 | > 100 | > 100 | > 100 | – | – | – | – | – | – | – | – | – | – | – |
| c1ccc2c(c1)cc1n2CC2CN=NC12 (stereo unspecified) | > 100 | – | > 100 | > 100 | > 100 | > 100 | > 100 | > 100 | > 100 | – | – | – | – | – | – | – | – | – | – | – |
| CC1(C)C(=O)C(C)(C)C1=S | > 100 | > 100 | – | > 100 | > 100 | > 100 | > 100 | > 100 | > 100 | – | – | – | – | – | – | – | – | – | – | – |
| c1ccc2c3c([nH]c2c1)C(c1ccc(C2NCCc4c2[nH]c2ccccc42)cc1)NCC3 (stereo unspecified) | 3.52 | 4.09 | 2.67 | 0.449 | 4.14 | – | 0.735 | 2.53 | 1.53 | 1.91 | 1.98 | 0.221 | 1.88 | – | 0.28 | 1.31 | 3.06 | 1.14 | 0.378 | 1.31 |
| CCSc1c2ccccc2c(-c2nc(F)nc(F)n2)n1CCc1ccccc1 | – | > 100 | > 100 | > 100 | – | – | > 100 | > 100 | > 100 | – | – | – | – | – | – | – | – | – | – | – |
